According to patent US20260265265A1, “NOVEL BENZIMIDAZOLONE DERIVATIVE COMPOUND AS AUTOTAXIN INHIBITOR” (LG CHEM, LTD., priority 2023, published 2026):

Target: T1, Recombinant Human ENPP-2/Autotaxin (Homo sapiens, UniProt Q13822)
T1 construct: purchased R&D systems 5255-EN
Assay: LysoPLD activity measurement (autotaxin enzyme inhibition, choline release, TOOS reagent)
Format: biochemical
Settings: LysoPLD inhibitory activity; substrate 14:0 LysoPC; absorbance at 555 nm
In short: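 Enzyme and compound were preincubated for 30 min before adding 14:0 LysoPC substrate, diluted to 300 μM, for 90 minutes at 37° C. The choline product was quantified colorimetrically with TOOS reagent. Wells without compound held 1% DMSO.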

SMILES	IC50 [µM]
O=C(O)c1cccc(C2(n3c(=O)n(-c4ccc(C5CCOC5)cc4)c4cc(Cl)ccc43)CC2)c1 (stereo not drawn) [Example 248, 3-(1-(5-chloro-2-oxo-3-(4-(tetrahydrofuran-3-yl)phenyl)-2,3-dihydro-1H-benzo[d]imidazol-1-yl)cyclopropyl)benzoic acid]	< 0.01
O=C(O)c1cccc(C2(n3c(=O)n(-c4ccc(N5CC6(COC6)C5)cc4)c4cc(Cl)ccc43)CC2)c1 [Example 149, 3-(1-(3-(4-(2-oxa-6-azaspiro[3.3]heptane-6-yl)phenyl)-5-chloro-2-oxo-2,3-dihydro-1H-benzo[d]imidazol-1-yl)cyclopropyl)benzoic acid]	< 0.01
CN(C)C(=O)Cc1ccc(-n2c(=O)n(C3(c4cccc(C(=O)O)c4)CC3)c3ncc(Cl)cc32)cc1 [Example 226, 3-(1-(6-chloro-1-(4-(2-(dimethylamino)-2-oxoethyl)phenyl)-2-oxo-1,2-dihydro-3H-imidazo[4,5-b]pyridin-3-yl)cyclopropyl)benzoic acid]	0.01 to 0.1
CC(=O)N1CCC2(CC1)CN(c1ccc(-n3c(=O)n(C4(c5cccc(C(=O)O)c5)CC4)c4ccc(Cl)cc43)cc1)C2 [Example 186, 3-(1-(3-(4-(7-acetyl-2,7-diazaspiro[3.5]nonan-2-yl)phenyl)-5-chloro-2-oxo-2,3-dihydro-1H-benzo[d]imidazol-1-yl)cyclopropyl)benzoic acid]	< 0.01
O=C(O)c1cccc(Cn2c(=O)n(-c3ccc(N4CC(O)C4)cc3)c3c(F)c(Cl)ccc32)c1F [Example 120, 3-((5-chloro-4-fluoro-3-(4-(3-hydroxyazetidin-1-yl)phenyl)-2-oxo-2,3-dihydro-1H-benzo[d]imidazol-1-yl)methyl)-2-fluorobenzoic acid]	0.01 to 0.1
CC1(C)OCc2cc(-n3c(=O)n(C4(c5cccc(C(=O)O)c5)CC4)c4ccc(Cl)cc43)ccc21 [Example 251, 3-(1-(5-chloro-3-(1,1-dimethyl-1,3-dihydroisobenzofuran-5-yl)-2-oxo-2,3-dihydro-1H-benzo[d]imidazol-1-yl)cyclopropyl)benzoic acid]	< 0.01
O=C(O)c1cc(F)cc(C2(n3c(=O)n(-c4ccc(N5CC6(CCC6)C5)cc4)c4cc(Cl)ccc43)CC2)c1 [Example 196, 3-(1-(3-(4-(2-azaspiro[3.3]heptan-2-yl)phenyl)-5-chloro-2-oxo-2,3-dihydro-1H-benzo[d]imidazol-1-yl)cyclopropyl)-5-fluorobenzoic acid]	0.01 to 0.1
CC(C)(O)c1ccc(-n2c(=O)n(C3(c4cccc(C(=O)O)c4)CC3)c3ccc(Cl)cc32)cc1 [Example 246, 3-(1-(5-chloro-3-(4-(2-hydroxypropane-2-yl)phenyl)-2-oxo-2,3-dihydro-1H-benzo[d]imidazol-1-yl)cyclopropyl)benzoic acid]	< 0.01
O=C(O)c1cccc(C2(n3c(=O)n(-c4ccc(S(=O)(=O)N5CCCC5)cc4)c4cc(Cl)ccc43)CC2)c1 [Example 215, 3-(1-(5-chloro-2-oxo-3-(4-(pyrrolidin-1-ylsulfonyl)phenyl)-2,3-dihydro-1H-benzo[d]imidazol-1-yl)cyclopropyl)benzoic acid]	< 0.01
O=C(O)c1cc(F)cc(C2(n3c(=O)n(-c4ccc(C5CCOCC5)cc4)c4cc(Cl)cnc43)CC2)c1 [Example 273, 3-(1-(6-chloro-2-oxo-1-(4-(tetrahydro-2H-pyran-4-yl)phenyl)-1,2-dihydro-3H-imidazo[4,5-b]pyridin-3-yl)cyclopropyl)-5-fluorobenzoic acid]	0.01 to 0.1
CN(C)c1ccc(-n2c(=O)n(C3(c4cccc(C(=O)O)c4F)CC3)c3ncc(Cl)cc32)cc1 [Example 229, 3-(1-(6-chloro-1-(4-(dimethylamino)phenyl)-2-oxo-1,2-dihydro-3H-imidazo[4,5-b]pyridin-3-yl)cyclopropyl)-2-fluorobenzoic acid]	< 0.01
O=C(O)c1cc(F)cc(C2(n3c(=O)n(-c4ccc(N5CCC(F)(F)CC5)cc4)c4cc(Cl)ccc43)CC2)c1 [Example 197, 3-(1-(5-chloro-3-(4-(4,4-difluoropiperidin-1-yl)phenyl)-2-oxo-2,3-dihydro-1H-benzo[d]imidazol-1-yl)cyclopropyl)-5-fluorobenzoic acid]	< 0.01
O=C(O)c1cccc(C2(n3c(=O)n(-c4ccc(CC(=O)N5CCC(F)(F)CC5)cc4)c4cc(Cl)ccc43)CC2)c1 [Example 173, 3-(1-(5-chloro-3-(4-(2-(4,4-difluoropiperidin-1-yl)-2-oxoethyl)phenyl)-2-oxo-2,3-dihydro-1H-benzo[d]imidazol-1-yl)cyclopropyl)benzoic acid]	0.01 to 0.1
CN(C)c1ccc(-n2c(=O)n(C3(c4cccc(C(=O)O)c4)CC3)c3ccc(C(F)(F)F)cc32)cc1 [Example 206, 3-(1-(3-(4-(dimethylamino)phenyl)-2-oxo-5-(trifluoromethyl)-2,3-dihydro-1H-benzo[d]imidazol-1-yl)cyclopropyl)benzoic acid]	0.01 to 0.1
CN(C)c1ccc(-n2c(=O)n(C3(c4cccc(C(=O)O)c4)CC3)c3ccc(OC(F)(F)F)cc32)cc1 [Example 208, 3-(1-(3-(4-(dimethylamino)phenyl)-2-oxo-5-(trifluoromethoxy)-2,3-dihydro-1H-benzo[d]imidazol-1-yl)cyclopropyl)benzoic acid]	0.01 to 0.1
O=C(O)c1cccc(C2(n3c(=O)n(-c4ccc(CC(=O)N5CCCC5)cc4)c4cc(Cl)ccc43)CC2)c1 [Example 170, 3-(1-(5-chloro-2-oxo-3-(4-(2-oxo-2-(pyrrolidin-1-yl)ethyl)phenyl)-2,3-dihydro-1H-benzo[d]imidazol-1-yl)cyclopropyl)benzoic acid]	< 0.01
C[C@H]1CN(C(=O)Cc2ccc(-n3c(=O)n(C4(c5cccc(C(=O)O)c5)CC4)c4ccc(Cl)cc43)cc2)CCO1 [Example 176, (S)-3-(1-(5-chloro-3-(4-(2-(2-methylmorpholino)-2-oxoethyl)phenyl)-2-oxo-2,3-dihydro-1H-benzo[d]imidazol-1-yl)cyclopropyl)benzoic acid]	0.01 to 0.1
O=C(O)c1cc(F)cc(C2(n3c(=O)n(-c4ccc(C5CCOCC5)nc4)c4cc(Cl)ccc43)CC2)c1 [Example 262, 3-(1-(5-chloro-2-oxo-3-(6-(tetrahydro-2H-pyran-4-yl)pyridin-3-yl)-2,3-dihydro-1H-benzo[d]imidazol-1-yl)cyclopropyl)-5-fluorobenzoic acid]	0.01 to 0.1

Now from value to compound:

IC50 [µM]	SMILES
< 0.01	CN(C)S(=O)(=O)c1ccc(-n2c(=O)n(C3(c4cccc(C(=O)O)c4)CC3)c3ccc(Cl)cc32)cc1 [Example 210, 3-(1-(5-chloro-3-(4-(N,N-dimethylsulfamoyl)phenyl)-2-oxo-2,3-dihydro-1H-benzo[d]imidazol-1-yl)cyclopropyl)benzoic acid]
0.01 to 0.1	O=C(O)c1cccc(Cn2c(=O)n(-c3ccc(C(=O)N4CCCC4)cc3)c3cc(Cl)cnc32)c1 [Example 169, 3-((6-chloro-2-oxo-1-(4-(pyrrolidine-1-carbonyl)phenyl)-1,2-dihydro-3H-imidazo[4,5-b]pyridin-3-yl)methyl)benzoic acid]
0.1 to 1	O=C(O)c1cccc(Cn2c(=O)n(-c3ccc(O)cc3)c3cc(Cl)ccc32)c1 [Example 13, 3-((5-chloro-3-(4-hydroxyphenyl)-2-oxo-2,3-dihydro-1H-benzo[d]imidazol-1-yl)methyl)benzoic acid]
0.1 to 1	CCCCc1ccc(-n2c(=O)n(Cc3cccc(C(=O)O)c3)c3ccc(Cl)cc32)cc1 [Example 16, 3-((3-(4-butylphenyl)-5-chloro-2-oxo-2,3-dihydro-1H-benzo[d]imidazol-1-yl)methyl)benzoic acid]
< 0.01	O=C(O)c1cccc(Cn2c(=O)n(-c3ccc(C(=O)N4CCCC4)cc3)c3cc(Cl)ccc32)c1 [Example 45, 3-((5-chloro-2-oxo-3-(4-(pyrrolidine-1-carbonyl)phenyl)-2,3-dihydro-1H-benzo[d]imidazol-1-yl)methyl)benzoic acid]
0.01 to 0.1	O=C(O)c1cccc(Cn2c(=O)n(-c3ccc(N4CC(O)C4)cc3)c3c(F)c(Cl)ccc32)c1 [Example 53, 3-((5-chloro-4-fluoro-3-(4-(3-hydroxyazetidin-1-yl)phenyl)-2-oxo-2,3-dihydro-1H-benzo[d]imidazol-1-yl)methyl)benzoic acid]
0.1 to 1	O=C(O)c1cccc(Cn2c(=O)n(-c3cnn(C4CCOCC4)c3)c3cc(Cl)ccc32)c1 [Example 86, 3-((5-chloro-2-oxo-3-(1-(tetrahydro-2H-pyran-4-yl)-1H-pyrazol-4-yl)-2,3-dihydro-1H-benzo[d]imidazol-1-yl)methyl)benzoic acid]
0.1 to 1	CC1CC=C(c2ccc(-n3c(=O)n(Cc4cccc(C(=O)O)c4F)c4ccc(Cl)cc43)cc2)CC1 (stereo not drawn) [Example 111, 3-((5-chloro-3-(4′-methyl-2′,3′,4′,5′-tetrahydro-′[1,1′-biphenyl]-4-yl)-2-oxo-2,3-dihydro-1H-benzo[d]imidazol-1-yl)methyl)-2-fluorobenzoic acid]
0.01 to 0.1	CC(C)(F)Cc1ccc(-n2c(=O)n(C3(c4cccc(C(=O)O)c4)CC3)c3ccc(Cl)cc32)cc1 [Example 217, 3-(1-(5-chloro-3-(4-(2-fluoro-2-methylpropyl)phenyl)-2-oxo-2,3-dihydro-1H-benzo[d]imidazol-1-yl)cyclopropyl)benzoic acid]
0.01 to 0.1	CN(C)C(=O)c1ccc(-n2c(=O)n(Cc3cccc(C(=O)O)c3)c3ccc(Cl)cc32)cc1F [Example 36, 3-((5-chloro-3-(4-(dimethylcarbamoyl)-3-fluorophenyl)-2-oxo-2,3-dihydro-1H-benzo[d]imidazol-1-yl)methyl)benzoic acid]
0.1 to 1	O=C(O)c1ccc(F)c(Cn2c(=O)n(-c3ccccc3)c3cc(Cl)ccc32)c1 [Example 32, 3-((5-chloro-2-oxo-3-phenyl-2,3-dihydro-1H-benzo[d]imidazol-1-yl)methyl)-4-fluorobenzoic acid]
0.1 to 1	O=C(O)c1cccc(Cn2c(=O)n(-c3ccc(C4CCN(C5COC5)CC4)cc3)c3cc(Cl)ccc32)c1 [Example 259, 3-((5-chloro-3-(4-(1-(oxetan-3-yl)piperidin-4-yl)phenyl)-2-oxo-2,3-dihydro-1H-benzo[d]imidazol-1-yl)methyl)benzoic acid]
